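Briefly, cells in 96-well plates were exposed to five compound concentrations for 48 h, and endpoints were estimated by linear interpolation. TGI is the concentration that stops growth completely.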

Some test systems named below: HOP-62 NSCLC; OVCAR-8 ovarian; OVCAR-4 ovarian; IGROV1 ovarian; SK-MEL-5 melanoma; EKVX NSCLC; SK-MEL-28 melanoma; HCT-15 colon; CCRF-CEM leukemia.
Assay in all cases: NCI anticancer screen, dose series, 48 h

As for `Cc1ccc2nc(NC(=O)C(=O)C(C(=O)c3ccc4ccccc4c3)C3OC(=O)c4ccccc43)sc2c1` (stereo not drawn), the TGI in the assay with HOP-62 NSCLC is 26.6 µM; with OVCAR-8 ovarian, 62.1 µM; in the assay with OVCAR-4 ovarian, more than 100 µM; in the assay with IGROV1 ovarian, 44.3 µM; with SK-MEL-5 melanoma it was 22.6 µM; in the assay with EKVX NSCLC, 44.5 µM. In the assay with SK-MEL-28 melanoma, this compound gave a TGI of 19.3 µM.
Regarding `O=S(=O)(C1=CC(S(=O)(=O)c2ccccc2)COC1)c1ccccc1` (stereo not drawn), the TGI with HOP-62 NSCLC, with OVCAR-8 ovarian, in the assay on OVCAR-4 ovarian, with IGROV1 ovarian, in the assay on HCT-15 colon and in the assay on EKVX NSCLC was more than 100 µM each time. Also, the TGI with SK-MEL-28 melanoma and in the assay with CCRF-CEM leukemia was more than 100 µM in each case.
Take `c1ccc2c(c1)[nH]c1cnc3c4ncccc4[nH]c3c12`: the TGI in the assay with HOP-62 NSCLC, in the assay on OVCAR-8 ovarian, in the assay on OVCAR-4 ovarian, in the assay with IGROV1 ovarian, in the assay with SK-MEL-5 melanoma and in the assay with HCT-15 colon was more than 100 µM throughout. In addition, the TGI in the assay on EKVX NSCLC, in the assay on SK-MEL-28 melanoma and with CCRF-CEM leukemia was more than 100 µM throughout.
As for `CC(C)N(C(=O)C12C3C4C1C1C2C3C41C(=O)C(C)(C)C)C(C)C` (stereo not drawn), the TGI in the assay on HOP-62 NSCLC, in the assay on OVCAR-8 ovarian, in the assay on OVCAR-4 ovarian, with IGROV1 ovarian, in the assay on SK-MEL-5 melanoma and in the assay on EKVX NSCLC was more than 100 µM in each case. For the same compound, the TGI in the assay with SK-MEL-28 melanoma and in the assay with CCRF-CEM leukemia was more than 100 µM in each case.
For the compound `Nc1cn(C2OC(CC(c3ccccc3)(c3ccccc3)c3ccccc3)C(O)C2O)c(=O)[nH]c1=O` (stereo not drawn), the TGI in the assay with HOP-62 NSCLC is 63.1 µM; in the assay on OVCAR-8 ovarian it was 89.6 µM; in the assay on IGROV1 ovarian it was 70.7 µM; in the assay with SK-MEL-5 melanoma, 37.4 µM; in the assay with HCT-15 colon, 33.3 µM; with EKVX NSCLC, more than 100 µM. The TGI in the assay with SK-MEL-28 melanoma was determined as 81.7 µM; in the assay on CCRF-CEM leukemia, 63.1 µM.
Regarding `O=C1C=CC2(CCCCCCC2=O)CC1` (stereo not drawn), the TGI in the assay with HOP-62 NSCLC, in the assay on OVCAR-8 ovarian, in the assay with OVCAR-4 ovarian, in the assay with IGROV1 ovarian, with SK-MEL-5 melanoma and in the assay on HCT-15 colon was more than 100 µM in each case. For the same compound, the TGI in the assay on EKVX NSCLC, with SK-MEL-28 melanoma and with CCRF-CEM leukemia was more than 100 µM each time.
With `NC1=NN(c2ccccc2)C(=O)C1C(=O)C(=O)Nc1ccc(Cl)cc1` (stereo not drawn), the TGI with HOP-62 NSCLC, with OVCAR-8 ovarian, with OVCAR-4 ovarian, in the assay on IGROV1 ovarian, in the assay with SK-MEL-5 melanoma and with HCT-15 colon was more than 100 µM each time. In addition, the TGI in the assay with EKVX NSCLC, with SK-MEL-28 melanoma and in the assay on CCRF-CEM leukemia was more than 100 µM in each case.
On to `Cc1noc2cccc(O)c12`, for which the TGI in the assay with HOP-62 NSCLC, in the assay on OVCAR-8 ovarian, in the assay with OVCAR-4 ovarian, in the assay on IGROV1 ovarian, in the assay on SK-MEL-5 melanoma and in the assay on HCT-15 colon was more than 100 µM throughout. The TGI with EKVX NSCLC, with SK-MEL-28 melanoma and in the assay on CCRF-CEM leukemia was more than 100 µM each time.
As for `CC(=O)OC1C[C@H]2C(OC(=O)c3ccccc3)C3C4(OC(C)=O)COC4C[C@H](OC(C)=O)[C@@]3(C)C(OC(C)=O)[C@H](OC(C)=O)C(=C1C)C2(C)C` (stereo partly drawn), the TGI in the assay with HOP-62 NSCLC, in the assay with OVCAR-8 ovarian, in the assay on OVCAR-4 ovarian, with IGROV1 ovarian, in the assay with SK-MEL-5 melanoma and in the assay with HCT-15 colon was more than 100 µM throughout. For the same compound, the TGI with EKVX NSCLC, in the assay with SK-MEL-28 melanoma and in the assay on CCRF-CEM leukemia was more than 100 µM in each case.
On to `NC(CCSCC(F)(F)F)C(=O)O` (stereo not drawn), for which the TGI with HOP-62 NSCLC, in the assay with OVCAR-8 ovarian, with OVCAR-4 ovarian, with IGROV1 ovarian, with SK-MEL-5 melanoma and with HCT-15 colon was more than 100 µM each time. Also, the TGI with EKVX NSCLC, in the assay on SK-MEL-28 melanoma and with CCRF-CEM leukemia was more than 100 µM each time.
As to `O=C(CCc1nc(=S)[nH][nH]1)Nc1cc(Cl)ccc1Cl`, the TGI with HOP-62 NSCLC, in the assay with OVCAR-8 ovarian, in the assay with OVCAR-4 ovarian, in the assay with IGROV1 ovarian, in the assay with SK-MEL-5 melanoma and in the assay with HCT-15 colon was more than 100 µM in each case. Further, the TGI in the assay on EKVX NSCLC, with SK-MEL-28 melanoma and in the assay on CCRF-CEM leukemia was more than 100 µM in each case.
As to `C/C(=C1/N=C(c2cc([N+](=O)[O-])ccc2Cl)N(c2ccc(Br)cc2)C1=O)c1ccc(N(CCC#N)CCC#N)cc1C`, the TGI in the assay with HOP-62 NSCLC is more than 100 µM; with OVCAR-8 ovarian it was more than 100 µM; in the assay on OVCAR-4 ovarian, more than 100 µM; in the assay on IGROV1 ovarian it was more than 100 µM; with SK-MEL-5 melanoma, more than 100 µM; with HCT-15 colon it was 58.7 µM. Further, the TGI in the assay on EKVX NSCLC is more than 100 µM; in the assay with SK-MEL-28 melanoma it was more than 100 µM; in the assay on CCRF-CEM leukemia, 32.7 µM.
As to `O=C(Nc1cccc(C(F)(F)F)c1)C(=O)C(C(=O)c1ccc(Cl)c(Cl)c1)C1OC(=O)c2ccccc21` (stereo not drawn), the TGI with HOP-62 NSCLC, in the assay on OVCAR-8 ovarian, in the assay with OVCAR-4 ovarian, in the assay with IGROV1 ovarian, with HCT-15 colon and with EKVX NSCLC was more than 100 µM each time. The compound also showed a TGI in the assay on CCRF-CEM leukemia of more than 100 µM.
Turning to `O=C1OC(CC(=O)c2ccc(F)cc2)C(Cl)=C1Cl` (stereo not drawn), the TGI with HOP-62 NSCLC was 72.5 µM; with OVCAR-8 ovarian it was 40.2 µM; in the assay with OVCAR-4 ovarian, 43.5 µM; in the assay with IGROV1 ovarian, 72.7 µM; in the assay on SK-MEL-5 melanoma, 60.4 µM; with HCT-15 colon it was 35.5 µM. Further, the TGI in the assay on EKVX NSCLC, in the assay with SK-MEL-28 melanoma and with CCRF-CEM leukemia was more than 100 µM in each case.
Turning to `O=C(NCCCCCCCCCCCCNC(=O)c1cnc2ccccc2n1)c1cnc2ccccc2n1`, the TGI is more than 100 µM in the assay on HOP-62 NSCLC; more than 100 µM in the assay with OVCAR-8 ovarian; 29.8 µM in the assay with OVCAR-4 ovarian; more than 100 µM in the assay with IGROV1 ovarian; more than 100 µM with SK-MEL-5 melanoma; more than 100 µM in the assay with HCT-15 colon. Besides, the TGI in the assay on EKVX NSCLC, in the assay on SK-MEL-28 melanoma and in the assay on CCRF-CEM leukemia was more than 100 µM throughout.
